Source: patent publication US20240327320A1, “NOVEL ROUTES OF CHEMICAL SYNTHESIS OF 20S(OH)D3, 20S,25(OH)2D3, 20S,23S(OH)2D3, AND 20S,23R(OH)2D3 AND THEIR MODIFICATION OF THE IMMUNE ACTIVITY OF PBMCS” (United State Government as represen ted by the Department …, priority 2023, published 2024)

System: Human epidermal keratinocytes (HEKn)
Experiment: Gene expression of differentiation markers, quantitative RT-PCR
Assay type: cell-based
Details: 8 h, FIG. 7A, compared to 20S(OH)D3
Procedure: RNA isolation and reverse transcription were performed as described previously (Slominski A T, et. al., (2021) Sci Rep 11(1) 8002). Quantitative RT-PCR was carried out using Sybr green Master Mix (Thermo Scientific, Waltham, MA), in triplicates as previously described (Slominski A T, et. al., (2021) Sci Rep 11(1) 8002; Janjetovic Z, et. al., (2014) J Pineal Res 57(1) 90-102). Human epidermal keratinocytes (HEKn) isolated from foreskin of white neonates were cultured until the third passage before treatment as described in the literature (Chaiprasongsuk A, et. al., (2019) Redox Biol 24 101206; Janjetovic Z, et. al., (2009) PloS one 4(6) e5988). Cells were treated with vitamin D3 derivatives for 8 h or 24 h and harvested for RNA isolation. Approximately 300 ng of RNA was used for cDNA synthesis and an equal amount of cDNA was used for PCR reactions. Cyclophilin B or GAPDH was used as an internal control. Primers sequences are listed in (Chaiprasongsuk A, et. al., (2020) Free Radic Biol Med 155 87-9845, Slominski A T, et. al., (2017) Sci Rep 7(1) 11434). Reactions were done in triplicate.
Referring to FIG. 7A-D, stimulation of keratinocyte differentiation by 20S(OH)D3, 20S,25(OH)2D3, 20S,23S(OH)2D3 and 20S,23R(OH)2D3 in comparison to 1α,25(OH)2D3. […]

SMILES: C=C1CC[C@H](O)C/C1=C/C=C1\CCC[C@@]2(C)[C@H]1CC[C@@H]2[C@@](C)(O)CCCC(C)(C)O [20S,25(OH)2D3, (20S)-20,25-Dihydroxyvitamin D3]
- gene expression of involucrin, CK10, and filaggrin: slightly better at inducing gene expression of involucrin, CK10, and filaggrin
